Marks after values point to notes of the source that are not given here.
How the values were obtained:
Assay type in all cases: in vivo
Settings in all cases: 100 = 100% disease control
[1] = system: Botrytis cinerea; test: Test C: tomato Botrytis on tomato seedlings, sprayed the day before inoculation, visual disease rating
Method in brief: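 Tomato seedlings were sprayed until run-off with test suspensions in acetone/water (50/50) carrying 250 ppm polyhydric alcohol ester surfactant. Standard dose was 200 ppm, with 40 ppm for marked entries.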

[2] = system: Septoria tritici; test: Test G: wheat leaf blotch on wheat seedlings, sprayed the day before inoculation, visual disease rating
Method in brief: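 Wheat seedlings were sprayed to run-off with test suspension (acetone/water plus surfactant), generally 200 ppm (≈500 g/ha), or 40 ppm where marked. Septoria tritici spores were inoculated the next day; plants were held 48 h at 24°C in saturated atmosphere, then 19 days at 20°C before visual disease rating.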

[3] = system: Septoria nodorum; test: Test F: wheat glume blotch on wheat seedlings, sprayed the day before inoculation, visual disease rating
Method in brief: (§1)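 200 ppm run-off spray (500 g/ha equivalent); * = 40 ppm. Vehicle: acetone/water 50/50, 250 ppm Trem® 014.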

[4] = system: Puccinia recondita f. sp. tritici; test: Test I: wheat leaf rust on wheat seedlings, sprayed the day before inoculation, visual disease rating
Method in brief: as §1

[5] = system: Erysiphe graminis f. sp. tritici; test: Test J: wheat powdery mildew on wheat seedlings, sprayed the day before inoculation, visual disease rating
Method in brief: as §1

[6] = system: Alternaria solani; test: Test D: tomato early blight, sprayed the day before inoculation, visual disease rating
Method in brief: as §1

[7] = system: Puccinia recondita f. sp. tritici; test: Test H: wheat leaf rust, test suspension sprayed after inoculation of wheat seedlings, visual disease rating
Method in brief: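 Wheat seedlings inoculated with P. recondita spores, held 24 h saturated at 20 °C, then 2 days in growth chamber at 20 °C; compound suspension (acetone/water with Trem 014) sprayed to run-off afterwards. Rated visually; 200 ppm (≈500 g/ha) unless marked *, which denotes 40 ppm.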

[8] = 40 ppm (marked *), 0 = no control
[9] = 200 ppm, 0 = no control relative to controls

Row | SMILES | Test C disease control rating [1, 9] | Test G disease control rating [2, 9] | Test F disease control rating [3, 9] | Test I disease control rating [4, 9] | Test J disease control rating [5, 9] | Test D disease control rating [6, 9] | Test H disease control rating [7, 9] | further results
1 | COc1ccc(F)c(-c2c(Cl)nc(C)n2-c2ccc(C)cc2)c1F [compound 333] |  |  |  |  |  |  |  | Test C disease control rating [1, 8]: 100* %; Test G disease control rating [2, 8]: 91* %; Test F disease control rating [3, 8]: 99* %; Test I disease control rating [4, 8]: 100* %; Test J disease control rating [5, 8]: 100* %; Test D disease control rating [6, 8]: 100* %; Test H disease control rating [7, 8]: 0* %
2 | CC(=O)Nc1ccc(-n2c(Br)nc(Cl)c2-c2c(F)cccc2F)cc1 [compound 643] |  |  |  |  |  |  |  | Test C disease control rating ([1]; 40 ppm (marked *)): 0* %; Test G disease control rating ([2]; 40 ppm (marked *)): 87* %; Test F disease control rating ([3]; 40 ppm (marked *)): 0* %; Test I disease control rating ([4]; 40 ppm (marked *)): 52* %; Test J disease control rating ([5]; 40 ppm (marked *)): 0* %; Test D disease control rating ([6]; 40 ppm (marked *)): 0* %; Test H disease control rating ([7]; 40 ppm (marked *)): 0* %
3 | COc1ccc(F)c(-c2c(Br)nc(Cl)n2-c2ccc(C)cc2)c1F [compound 517] | 100% | 98% | 96% | 99% | 100% | 100% | 0% | 
4 | COc1cc(F)c(-c2c(Cl)nc(C)n2-c2ccc(OC)nc2)c(F)c1 [compound 714] | 100% | 99% | 100% | 100% | 100% | 100% | 100% | 
5 | COc1ccc(F)c(-c2c(Cl)nc(Cl)n2-c2ccc(C#N)cc2)c1F [compound 552] | 99% | 96% | 0% | 46% | 98% | 100% | 0% | 
6 | Cc1nc(Cl)c(-c2c(F)cccc2F)n1-c1ccc2ccccc2c1 [compound 303] |  |  |  |  |  |  |  | Test C disease control rating [1, 8]: 100* %; Test G disease control rating [2, 8]: 96* %; Test F disease control rating [3, 8]: 98* %; Test I disease control rating [4, 8]: 74* %; Test J disease control rating [5, 8]: 81* %; Test D disease control rating [6, 8]: 99* %; Test H disease control rating [7, 8]: 0* %
7 | Fc1cc(-n2c(Cl)nc(Cl)c2-c2cncc(Br)c2)ccc1Cl [compound 486] | 66% | 0% | 0% | 14% | 0% | 0% | 0% | 
8 | COc1cc(F)c(-c2c(Cl)nc(C)n2Cc2ccc(C)nc2)c(F)c1 [compound 671] | 99% | 95% | 92% | 78% | 0% | 100% | 17% | 
9 | CN(C)c1c(Cl)cc(-n2cnc(Cl)c2-c2c(F)cccc2F)cc1Cl [compound 652] |  |  |  |  |  |  |  | Test C disease control rating ([1]; 40 ppm (marked *)): 0* %; Test G disease control rating ([2]; 40 ppm (marked *)): 0* %; Test F disease control rating ([3]; 40 ppm (marked *)): 0* %; Test I disease control rating ([4]; 40 ppm (marked *)): 0* %; Test J disease control rating ([5]; 40 ppm (marked *)): 0* %; Test D disease control rating ([6]; 40 ppm (marked *)): 0* %; Test H disease control rating ([7]; 40 ppm (marked *)): 6* %
10 | COc1cc(OC)cc(-n2c(Cl)nc(C)c2-c2c(F)cc(OC)cc2F)c1 [Compound 694, 2-chloro-5-(2,6-difluoro-4-methoxyphenyl)-1-(3,5-dimethoxyphenyl)-4-methyl-1H-imidazole] |  |  |  |  |  |  |  | pest or weed control at 40 ppm ([1]; Botrytis cinerea, 120 h, 40 ppm (marked *)): 100%; pest or weed control at 40 ppm ([2]; Zymoseptoria tritici, 504 h, 40 ppm (marked *)): 98%; pest or weed control at 40 ppm ([3]; Parastagonospora nodorum, 264 h, 40 ppm (marked *)): 99%; pest or weed control at 40 ppm ([4]; Puccinia recondita, 168 h, 40 ppm (marked *)): 99%; pest or weed control at 40 ppm ([5]; Blumeria graminis, 168 h, 40 ppm (marked *)): 98%; pest or weed control at 40 ppm ([6]; Alternaria solani, 168 h, 40 ppm (marked *)): 100%; pest or weed control at 40 ppm ([7]; Puccinia recondita, 96 h, 40 ppm (marked *)): 0%
11 | COc1ccc(F)c(-c2c(Cl)nc(Br)n2-c2ccc(Cl)nc2)c1F [compound 730] | 100% | 100% | 99% | 99% | 100% | 100% | 9% | 
12 | COc1cc(F)c(-c2c(Br)nc(Br)n2-c2ccc(F)cc2)c(F)c1 [compound 523] |  |  |  |  |  |  |  | Test C disease control rating ([1]; 40 ppm (marked *)): 100* %; Test G disease control rating ([2]; 40 ppm (marked *)): 98* %; Test F disease control rating ([3]; 40 ppm (marked *)): 0* %; Test I disease control rating ([4]; 40 ppm (marked *)): 99* %; Test J disease control rating ([5]; 40 ppm (marked *)): 97* %; Test D disease control rating ([6]; 40 ppm (marked *)): 100* %; Test H disease control rating ([7]; 40 ppm (marked *)): 0* %
13 | COc1cc(F)c(-c2c(C)nc(Cl)n2-c2ccc(C(F)(F)F)nc2)c(F)c1 [compound 732] | 100% | 99% | 100% | 99% | 100% | 100% | 0% | 
14 | COc1cc(F)c(-c2c(Br)ncn2-c2ccc(C)nc2)c(F)c1 [compound 555] | 100% | 98% | 69% | 100% | 98% | 99% | 0% | 
15 | Cc1nc(Cl)c(-c2c(F)ccc(F)c2F)n1-c1cccc(F)c1 [compound 369] | 99% | 92% | 98% | 99% | 99% | 100% | 74% | 
16 | COc1ccc(F)c(-c2c(Cl)nc(C)n2-c2ccc(C)c(F)c2)c1F [compound 590] |  |  |  |  |  |  |  | Test C disease control rating ([1]; 40 ppm (marked *)): 100* %; Test G disease control rating ([2]; 40 ppm (marked *)): 96* %; Test F disease control rating ([3]; 40 ppm (marked *)): 94* %; Test I disease control rating ([4]; 40 ppm (marked *)): 100* %; Test J disease control rating ([5]; 40 ppm (marked *)): 100* %; Test D disease control rating ([6]; 40 ppm (marked *)): 100* %; Test H disease control rating ([7]; 40 ppm (marked *)): 7* %
17 | Cc1nc(Br)c(-c2ccc(Cl)c(F)c2)n1-c1ccc(F)cc1Cl [compound 340] | 99% | 92% | 0% | 94% | 95% | 98% | 0% | 
18 | Fc1cc(-n2c(Cl)nc(CCl)c2-c2cccnc2Cl)ccc1Cl [compound 359] | 98% | 35% | 0% | 80% | 0% | 0% | 0% | 
19 | COc1ccc(F)c(-c2c(Cl)ncn2-c2cccc(C)c2)c1F [compound 300] | 99% | 91% | 0% | 97% | 99% | 98% | 48% | 

From patent publication US20110045101A1, “FUNGICIDAL SUBSTITUTED AZOLES” (E.I. Du Pont De Nemours and Company, priority 2009, published 2011)
